The test system of assay [1] is SARS-CoV-2. Put plainly: Cytopathic effect (CPE) suppression effect confirmation test using HEK293T/ACE2-TMPRSS2 cells. It is filed as cell-based. Particulars: Severe acute respiratory syndrome coronavirus 2, HEK-293T, 72 h.
Assay [2] addresses Recombinant SARS-CoV-2 3CL Protease (Severe acute respiratory syndrome coronavirus 2 (2019-nCoV) (SARS-CoV-2), UniProt P0DTD1). Put plainly: biochemical. The assay is classed as biochemical. The conditions noted are these: 50% SARS-CoV-2 3CL protease inhibitory concentration; read-out: IC50.
Setting [3] is: read-out: EC50 (50% SARS-CoV-2 infected cell death inhibitory concentration), class, HEK293T/ACE2-TMPRSS2 cells, CPE suppression, CellTiter-Glo 2.0 after 3 days culture.
[4] abbreviates: HEK293T/ACE2-TMPRSS2 cells, CPE suppression, CellTiter-Glo 2.0 after 3 days culture, read-out: EC50 (50% SARS-CoV-2 infected cell death inhibitory concentration), class.

Each structure is given as a SMILES string. Where two headings read alike, the source gives them in different places.

The term IC50 denotes the concentration needed to halve the response being measured. As to `Cc1cncc(-n2c(=O)c(Cc3cc(F)c(F)c(F)c3)c(N3CCC4(CC3)CNC(=O)O4)n(CC#N)c2=O)c1` [Compound I-114], the EC50 in assay [1] (setting [3]) was 100 to 1000 nM. The IC50 in assay [2] is < 10 nM.
The matching figures for `Cc1cncc(-n2c(=O)c(Cc3cc(F)c(F)c(F)c3)c(N3CCC(O)(C(F)(F)F)CC3)n(CC#N)c2=O)c1` [Compound I-116]: < 100 nM and < 10 nM.
For `Cc1cncc(-n2c(=O)c(Cc3cc(F)c(F)c(F)c3)c(N3C[C@H]4CN(C)C[C@H]4C3)n(CC#N)c2=O)c1` [Compound I-117], the EC50 in assay [1] (setting [3]) is < 100 nM. In addition, the IC50 in assay [2] was < 10 nM.
For the compound `Cc1cncc(-n2c(=O)c(Cc3cc(F)c(F)c(F)c3)c(N3CCC(C(F)F)CC3)n(CC#N)c2=O)c1` [Compound I-118], the EC50 in assay [1] (setting [3]) was < 100 nM. Moreover, the IC50 in assay [2] is < 10 nM.
Consider `Cc1cncc(-n2c(=O)c(Cc3cc(F)c(F)c(F)c3)c(N3CCC(C(F)(F)F)CC3)n(CC#N)c2=O)c1` [Compound I-119], for which the EC50 in assay [1] (setting [3]) was < 100 nM. The IC50 in assay [2] is < 10 nM.
Taken in the same sequence, the figures for `Cc1cncc(-n2c(=O)c(-c3ccc(F)c(Cl)c3)c(-c3nc4ccccc4s3)n(CC#N)c2=O)c1` [Compound I-120] were < 100 nM and < 10 nM.
For the compound `Cn1cnc(Cn2c(=O)c(-c3cccc(Cl)c3)c(N3Cc4ccccc4C3)n(CC#N)c2=O)n1` [Compound I-122], in assay [1] (setting [3]), the EC50 fell in the range of 1000 to 5000 nM. Moreover, in assay [2], the IC50 is > 100 nM.
`N#CCn1c(N2Cc3ccccc3C2)c(-c2cccc(Cl)c2)c(=O)n(Cc2ccc[nH]c2=O)c1=O` [Compound I-124]: the EC50 in assay [1] (setting [3]) is < 100 nM. Moreover, in assay [2], the IC50 was < 10 nM.
The matching figures for `N#CCn1c(Cl)c(-c2ccc(F)c(Cl)c2)c(=O)n(-c2cnc3cc(Cl)ccn23)c1=O` [Compound I-126]: 1000 to 5000 nM and > 100 nM.
The matching figures for `N#CCn1c(N2CC3(CCOC3)C2)c(Cc2cc(F)c(F)c(F)c2)c(=O)n(-c2cnc3cnccn23)c1=O` [Compound I-127]: 1000 to 5000 nM and > 100 nM.
Consider `N#CCn1c(N2CC3(CCOC3)C2)c(Cc2cc(F)c(F)c(F)c2)c(=O)n(-c2cnn3ccccc23)c1=O` [Compound I-128], for which the EC50 in assay [1] (setting [3]) lay in the range of 100 to 1000 nM. The IC50 in assay [2] was > 100 nM.
For `N#CCn1c(N2CC3(CCOC3)C2)c(Cc2cc(F)c(F)c(F)c2)c(=O)n(-c2cnc3ccc(F)cn23)c1=O` [Compound I-129], the EC50 in assay [1] (setting [4]) lay in the range of 100 to 1000 nM. Moreover, the IC50 in assay [2] fell in the range of 10 to 100 nM.
On to `N#CCn1c(N2CC3(CCOC3)C2)c(-c2ccc(F)c(Cl)c2)c(=O)n(-c2cnc3ccc(F)cn23)c1=O` [Compound I-130], for which, in assay [1] (setting [3]), the EC50 was < 100 nM. Moreover, in assay [2], the IC50 is < 10 nM.
The matching figures for `N#CCn1c(N2CC3(CCOC3)C2)c(-c2ccc(F)c(Cl)c2)c(=O)n(-c2cnc3cc(Cl)ccn23)c1=O` [Compound I-131]: < 100 nM and < 10 nM.
For `Cc1cncc(-n2c(=O)c(-c3ccc(F)c(Cl)c3)c(-c3nc4ccccc4o3)n(CC#N)c2=O)c1` [Compound I-132], the EC50 in assay [1] (setting [3]) was < 100 nM. Also, in assay [2], the IC50 was < 10 nM.
As for `CC(C)(O)C1CN(c2c(-c3ccc(F)c(Cl)c3)c(=O)n(-c3cnc4cc(Cl)ccn34)c(=O)n2CC#N)C1` [Compound I-133], the EC50 in assay [1] (setting [4]) is < 100 nM. In assay [2], the IC50 lay in the range of 10 to 100 nM.
Take `N#CCn1c(N2CC3(CC3)C2)c(-c2ccc(F)c(Cl)c2)c(=O)n(-c2cnc3cc(Cl)ccn23)c1=O` [Compound I-134]: the EC50 in assay [1] (setting [3]) was < 100 nM. Also, the IC50 in assay [2] was < 10 nM.
On to `N#CCn1c(N2CC(O)(C(F)(F)F)C2)c(-c2ccc(F)c(Cl)c2)c(=O)n(-c2cnc3cc(Cl)ccn23)c1=O` [Compound I-135], for which the EC50 in assay [1] (setting [4]) is < 100 nM. In assay [2], the IC50 was 10 to 100 nM.
As for `N#CCn1c(N2CC(O)(C(F)(F)F)C2)c(-c2ccc(F)c(Cl)c2)c(=O)n(-c2cnc3cc(F)ccn23)c1=O` [Compound I-136], the EC50 in assay [1] (setting [3]) is < 100 nM. Besides, the IC50 in assay [2] was < 10 nM.
As to `CC1(O)CC2(CN(c3c(-c4ccc(F)c(Cl)c4)c(=O)n(-c4cnc5cc(F)ccn45)c(=O)n3CC#N)C2)C1` [Compound I-137], in assay [1] (setting [4]), the EC50 lay in the range of 100 to 1000 nM. Besides, the IC50 in assay [2] was in the range of 10 to 100 nM.
`CC1(O)CC2(CN(c3c(-c4ccc(F)c(Cl)c4)c(=O)n(-c4cnc5cc(Cl)ccn45)c(=O)n3CC#N)C2)C1` [Compound I-138]: the EC50 in assay [1] (setting [4]) lay within 100 to 1000 nM. Moreover, the IC50 in assay [2] lay in the range of 10 to 100 nM.
Taken in the same sequence, the figures for `N#CCn1c(N2CC(C(F)(F)F)C2)c(-c2ccc(F)c(Cl)c2)c(=O)n(-c2cnc3cc(Cl)ccn23)c1=O` [Compound I-139] were < 100 nM and 10 to 100 nM.
On to `N#CCn1c(N2CC3(C2)CC(F)(F)C3)c(-c2ccc(F)c(Cl)c2)c(=O)n(-c2cnc3cc(Cl)ccn23)c1=O` [Compound I-140], for which, in assay [1] (setting [3]), the EC50 was < 100 nM. Further, in assay [2], the IC50 is < 10 nM.
On to `N#CCn1c(N2CCC(O)(C(F)(F)F)CC2)c(-c2ccc(F)c(Cl)c2)c(=O)n(-c2cnc3cc(Cl)ccn23)c1=O` [Compound I-141], for which, in assay [1] (setting [4]), the EC50 was < 100 nM. Besides, the IC50 in assay [2] fell in the range of 10 to 100 nM.
For `N#CCn1c(N2CC(O)(C(F)(F)F)C2)c(-c2ccc(F)c(Cl)c2)c(=O)n(-c2cncc(Cl)c2)c1=O` [Compound I-142], the EC50 in assay [1] (read-out: EC50 (50% SARS-CoV-2 infected cell death inhibitory concentration), HEK293T/ACE2-TMPRSS2 cells, CPE suppression, CellTiter-Glo 2.0 after 3 days culture) was 3.35 nM. Also, the IC50 in assay [2] is 0.46 nM.
Regarding `N#CCn1c(N2CC3(CCOC3)C2)c(Cc2cc(F)c(F)c(F)c2)c(=O)n(-c2nsc3ccccc23)c1=O` [Compound I-143], the EC50 in assay [1] (setting [3]) fell in the range of 1000 to 5000 nM. In addition, the IC50 in assay [2] was > 100 nM.
Regarding `N#CCn1c(N2CC3(CCOC3)C2)c(Cc2cc(F)c(F)c(F)c2)c(=O)n(-c2cnc3cccnn23)c1=O` [Compound I-144], the EC50 in assay [1] (setting [3]) is 100 to 1000 nM. Moreover, the IC50 in assay [2] was > 100 nM.
On to `N#CCn1c(N2CC3(CCOC3)C2)c(Cc2cc(F)c(F)c(F)c2)c(=O)n(-c2cnc3cc(F)ccn23)c1=O` [Compound I-145], for which the EC50 in assay [1] (setting [4]) lay in the range of 100 to 1000 nM. In assay [2], the IC50 lay within 10 to 100 nM.
Take `N#CCn1c(N2C[C@H]3C[C@@H]2CN3)c(-c2ccc(F)c(Cl)c2)c(=O)n(-c2cncc(Cl)c2)c1=O` [Compound I-146]: the EC50 in assay [1] (setting [3]) was 100 to 1000 nM. Moreover, in assay [2], the IC50 is < 10 nM.
The matching figures for `N#CCn1c(N2CC3(CCOC3)C2)c(-c2ccc(F)c(Cl)c2)c(=O)n(-c2cnc3cc(F)ccn23)c1=O` [Compound I-147]: < 100 nM and < 10 nM.
Turning to `N#CCn1c(N2CCC(F)(F)C2)c(-c2ccc(F)c(Cl)c2)c(=O)n(-c2cncc(Cl)c2)c1=O` [Compound I-148], the EC50 in assay [1] (setting [3]) was < 100 nM. Moreover, the IC50 in assay [2] is < 10 nM.
The matching figures for `N#CCn1c(N2CC3(C2)CC(F)(F)C3)c(-c2ccc(F)c(Cl)c2)c(=O)n(-c2cnc3cc(F)ccn23)c1=O` [Compound I-149]: < 100 nM and < 10 nM.
For the compound `N#CCn1c(N2CCC(O)(C(F)(F)F)CC2)c(-c2ccc(F)c(Cl)c2)c(=O)n(-c2cnc3cc(F)ccn23)c1=O` [Compound I-150], the EC50 in assay [1] (setting [3]) was < 100 nM. Also, the IC50 in assay [2] is < 10 nM.
As to `N#CCn1c(N2CC(F)(C3CC3)C2)c(-c2ccc(F)c(Cl)c2)c(=O)n(-c2cnc3cc(F)ccn23)c1=O` [Compound I-151], in assay [1] (setting [3]), the EC50 is < 100 nM. Further, the IC50 in assay [2] was < 10 nM.
Taken in the same sequence, the figures for `N#CCn1c(N2CC3(CCCO3)C2)c(-c2ccc(F)c(Cl)c2)c(=O)n(-c2cnc3cc(F)ccn23)c1=O` [Compound I-152] were < 100 nM and < 10 nM.
